These results are taken from PubChem BioAssay (NCI).

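Step 1: Grow cells in 96-well plates. Step 2: Expose to compound for 48 hours at 5 concentrations. Step 3: Interpolate endpoints linearly; if unreached, use highest concentration. TGI marks complete inhibition of growth.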

Test systems include MOLT-4 leukemia; HOP-92 NSCLC; DU-145 prostate.
What all share (assay): NCI anticancer screen, dose series, 48 h

`Cn1c(=O)c2sc3c4sc5c(=O)n(C)c6ccccc6c5c4sc3c2c2ccccc21`: the TGI with MOLT-4 leukemia, in the experiment with HOP-92 NSCLC and with DU-145 prostate was over 100 µM throughout.

As for `c1csc(-c2nccc3c2[nH]c2ccccc23)c1`, the results for the TGI with MOLT-4 leukemia, in the experiment on HOP-92 NSCLC and in the experiment on DU-145 prostate were 51.5 µM, 41.5 µM and 63.9 µM, respectively.

Turning to `O=C1NC(N2CCCC(CO)C2)=N/C1=C\c1ccccc1` (stereo not drawn), the TGI with MOLT-4 leukemia, in the experiment with HOP-92 NSCLC and in the experiment with DU-145 prostate was over 100 µM each time.

Regarding `CCCN(CCC)C(=S)N/N=C(/C)c1ccccc1O`, the TGI was over 36.9 µM in the experiment with MOLT-4 leukemia, over 76.8 µM in the experiment with HOP-92 NSCLC and over 100 µM with DU-145 prostate.

Take `Cc1cccc(NC(=O)O/N=C(\Cl)C(C)C)c1`: the TGI with MOLT-4 leukemia was determined as 5.63 µM; in the experiment with HOP-92 NSCLC, 3.14 µM; in the experiment on DU-145 prostate, 33 µM.

As for `N#Cc1cc2c(cc1C#N)/C(=N\c1cccc(N)n1)N=C2Nc1cccc(N)n1`, the TGI in the experiment with MOLT-4 leukemia and in the experiment with DU-145 prostate was over 100 µM throughout.

As to `CC1=NN(c2nc(N)nc(CSc3cc(Cl)c(C)cc3S(N)(=O)=O)n2)C(C)(C)C1`, the TGI with MOLT-4 leukemia and with DU-145 prostate was over 10 µM throughout.

In the case of `CC(C)=Cc1cc(C)c2c3c(c(O)c(O)c(C)c13)C(C)=CC2=O`, the TGI with MOLT-4 leukemia was found to be 54.7 µM; in the experiment on HOP-92 NSCLC it was 38.6 µM; in the experiment on DU-145 prostate, 89 µM.

For `CCN(CC)Cc1ccccc1CC(=O)N1c2ccccc2C(=O)Nc2cccnc21`, the TGI in the experiment on MOLT-4 leukemia, in the experiment with HOP-92 NSCLC and in the experiment with DU-145 prostate was over 100 µM each time.

`CN(C)C1(N(C)C)Oc2c(c(=O)n(C)c(=O)n2C)C(c2ccc(C(F)(F)F)cc2)C1(F)F` (stereo not drawn): the TGI in the experiment on HOP-92 NSCLC and in the experiment on DU-145 prostate was over 100 µM each time.

Take `COC(=O)c1c(C)[nH]c2c1C(=O)C(=O)c1nc(C)c(C)nc1-2`: the figures for the TGI in the experiment on MOLT-4 leukemia, with HOP-92 NSCLC and in the experiment on DU-145 prostate were 95 µM, 24.8 µM and 25.5 µM, respectively.

For the compound `Cn1nc2ccc([N+](=O)[O-])cc2[n+]1[O-]`, the TGI with MOLT-4 leukemia and with DU-145 prostate was over 100 µM each time.

In the case of `C=C1[C@H]2O[C@H]2[C@@H](OC(C)=O)[C@@]2(C)[C@@H](OC(C)=O)C[C@@H](OC(=O)CCC)[C@@](C)(O)[C@@H]2[C@@H](OC(C)=O)[C@]2(O)[C@@H](C)C(=O)O[C@H]2[C@H]1Cl`, the TGI in the experiment with MOLT-4 leukemia, in the experiment on HOP-92 NSCLC and in the experiment on DU-145 prostate was over 100 µM each time.

Take `COCCOC(=O)NCn1cc(-c2ccccc2)nn1`: the TGI in the experiment on MOLT-4 leukemia, in the experiment with HOP-92 NSCLC and in the experiment on DU-145 prostate was over 100 µM each time.

Regarding `CO/N=C(/C)c1cccc(Nc2nc3ccc(Cl)cc3c3[nH]c4ccccc4c23)c1`, the TGI worked out at 7.91 µM in the experiment with MOLT-4 leukemia, 21 µM in the experiment with HOP-92 NSCLC and 24.9 µM with DU-145 prostate.

For the compound `COC(=O)CCC1=NCC(C)(C)O1`, the TGI with MOLT-4 leukemia and in the experiment with DU-145 prostate was over 10 µM in each case.

On to `CNCCN[C@@H]1c2cc3c(cc2[C@@H](c2cc(OC)c(O)c(OC)c2)[C@H]2C(=O)OC[C@@H]21)OCO3`, for which the TGI in the experiment with MOLT-4 leukemia stood at 0.0587 µM; in the experiment on DU-145 prostate it was 1.57 µM.

Turning to `CC(=O)NC1C(OC(C)C(=O)NC(C(=O)NC(CCC(=O)NCCCNC2c3ccccc3Nc3cccc([N+](=O)[O-])c32)C(N)=O)C(C)C)C(O)C(CO)OC1(C)OCc1ccccc1` (stereo not drawn), the TGI with MOLT-4 leukemia was 2.6 µM; in the experiment with DU-145 prostate, 0.817 µM.

For `C[C@@H](CC(=O)O)OC1OC(COC(=O)C(C)(C)C)C(OC(=O)C(C)(C)C)C(OC(=O)C(C)(C)C)C1OC(=O)C(C)(C)C` (stereo partly drawn), the TGI is 81.3 µM with MOLT-4 leukemia, over 100 µM with HOP-92 NSCLC and over 100 µM in the experiment with DU-145 prostate.

On to `CSc1nc(Nc2ccccc2Cl)c2c(N)nn(C)c2n1`, for which the TGI in the experiment on MOLT-4 leukemia and with DU-145 prostate was over 100 µM each time.

Consider `Cc1csc(NNC(N)=O)n1`, for which the TGI in the experiment with MOLT-4 leukemia, in the experiment with HOP-92 NSCLC and in the experiment with DU-145 prostate was over 100 µM in each case.

As for `COC(=O)c1cc(OS(=O)(=O)C(F)(F)F)c(=O)n2c1CCCC2`, the TGI in the experiment with MOLT-4 leukemia and with DU-145 prostate was over 100 µM each time.

For `CCC(=O)NI1OC(=O)c2ccccc21`, the TGI in the experiment on MOLT-4 leukemia, in the experiment with HOP-92 NSCLC and with DU-145 prostate was over 100 µM in each case.

As for `O=C(CC(O)(C(F)(F)F)C(F)(F)Cl)CC(O)(C(F)(F)F)C(F)(F)Cl` (stereo not drawn), the results for the TGI in the experiment on MOLT-4 leukemia, in the experiment with HOP-92 NSCLC and with DU-145 prostate were over 10 µM, 4.57 µM and over 10 µM, respectively.

Turning to `CN1CC(c2ccccc2)C(O)(C2(c3ccccc3)CN(C)CC(c3ccccc3)C2=O)C(c2ccccc2)C1` (stereo not drawn), the TGI with MOLT-4 leukemia, with HOP-92 NSCLC and in the experiment with DU-145 prostate was over 100 µM each time.

As to `COc1cc2c(cc1OC)C1c3ccccc3CCN1CCC2` (stereo not drawn), the TGI in the experiment on MOLT-4 leukemia and in the experiment with DU-145 prostate was over 100 µM each time.

In the case of `Cc1cc(C)c2c(n1)S(=O)(=O)N(CCCN1CCN(c3cccc(Cl)c3)CC1)/C(=C(\O)c1ccccc1)C2=O`, the TGI is 44.4 µM in the experiment on MOLT-4 leukemia, 77.4 µM in the experiment on HOP-92 NSCLC and over 100 µM in the experiment on DU-145 prostate.

Regarding `O=C(O)C1OC1C(=O)O` (stereo not drawn), the TGI in the experiment on HOP-92 NSCLC and with DU-145 prostate was over 100 µM each time.

For `CC(C)(C)OC(=O)N1CC(CCl)c2ccc(O)cc21` (stereo not drawn), the TGI came out at 8.13 µM with MOLT-4 leukemia, 6.87 µM in the experiment with HOP-92 NSCLC and 5.73 µM in the experiment on DU-145 prostate.

For `CC(=O)Nc1ccc2c3c(cc(O)c2c1)N(C(=O)CCCCC(=O)N1CC(CCl)c2c1cc(O)c1cc(NC(C)=O)ccc21)CC3CCl` (stereo not drawn), the TGI in the experiment with MOLT-4 leukemia is 0.0176 µM; with DU-145 prostate, 0.209 µM.

As for `COC(=O)[C@H](Cc1ccccc1)NC(=O)N(CCC#N)CCCCN(CCC#N)C(=O)N[C@@H](Cc1ccccc1)C(=O)OC`, the TGI with MOLT-4 leukemia, in the experiment with HOP-92 NSCLC and with DU-145 prostate was over 100 µM each time.

On to `O=C(c1cccc2ccccc12)C1S(=O)(=O)OCCOS1(=O)=O`, for which the TGI in the experiment on MOLT-4 leukemia and with DU-145 prostate was over 100 µM throughout.
